“Also recorded” adds a separate entry of the source.
Experiments:
[1] = tested on: Spirulina platensis; assay: Growth of Spirulina platensis (dry algae density) in growth medium combined with absorbent liquid loaded with CO2; format: cell-based
Protocol: For the absorbent liquids standard procedures were used to prepare the solvent solutions. For the absorbent liquids stock solutions with a molarity of 2 M were prepared. To test the growth, the molarities of the solutions were adjusted at the start of the experiments by adding a given amount of the aqueous growth medium.
The growth of the algae was tested with different solutions composed from different ratios (volume based) of growth media and absorbent liquid.
Subsequently, a number of dedicated experiments were performed were a specific algae (and growth medium) was combined with a given absorbent liquid in the presence of CO2. The CO2 was added in two different ways.
In the first way, so-called batch operation, the algae, growth medium, and the absorbent liquid (with a given molarity) were prepared in a beaker (of about 1 l) or reactor (available with a volume of 10 l and 20 l) and the CO2 was bubbled through for at least 12 h to saturate the solution with a high flow rate (in the order of 200 ml/min).
During the experiments the pH was measured on a daily basis.
At given times a small sample was taken from the beaker (or reactor) to analyse the micro-algae. The volume of the sample was determined, the sample was then dried in an oven, and subsequently the mass determined (by weighing) to obtain the dry algae density (g/l).
For various tests, Arthrospira (Spirulina) platensis was used. The Spirulina strain is kept in Schlösser's medium (Schlösser, Berichten der Deutchen Botanischen Gesellschaft 1982, 95, 181-276). Schlösser's medium contained per litre: 13.6 g of NaHCO3, 4.03 g of Na2CO3, 0.5 g of K2HPO4, 2.5 g of NaNO3, 1 g of K2SO4, 1 g of NaCl, 0.2 g of MgSO4.7H2O, 0.04 g of CaCl2.2H2O, 0.01 g of FeSO4.7H2O, and 0.08 g of EDTA (ethylenediaminetetraacetic). Some micronutrients are added as well.
The overall composition based on 1 l of total solution was obtained by combining: 400 ml of the growth medium, for example the Schlösser's medium, with 400 ml of an aqueous amino acids salts, with as ‘counter ion’ potassium hydroxide, solution, where the amount of amino acid was varied between 0.1 M and 1 M. Subsequently, 200 ml of algae solution was added.

[2] = CO2 uptake in absorbent liquid in a sealed beaker fed continuously with flue gas, online CO2 analyser; format: physicochemical; settings: 0.2 M taurine, 4 l liquid, flue gas 7.2% CO2, total period 100 000 s
Protocol: CO2 is fed continuously to a sealed beaker with water and with an absorp absorbent liquid (0.2 M taurine). The height of the liquids is 30 cm the total amount of liquids is 4 l. For water the uptake, that is the amount of CO2, in %, leaving the beaker as function of the time, is given for two flow rates. […] In FIG. 4, the CO2 concentration, in %, leaving the beaker as function of time is depicted. Experiments were conducted in a sealed beaker, where flue gas was fed, and where the gaseous stream leaving the beaker was analysed with an online CO2 analyser. The composition of the ‘flue gas’ was 7.2% CO2 and […].

NCCS(=O)(=O)O [taurine, 2-aminoethanesulphonic acid]
dry algae density ([1]; Spirulina platensis, 0.1 M taurine as absorbent liquid): about 2 g/l
dry algae density, initial constant level ([1]; Spirulina platensis, 0.2 M taurine, solution saturated with CO2 at start, before reloading at day 20): about 1.4 g/l
final dry algae density ([1]; Spirulina, 0.2 M taurine initially saturated with CO2, after about 15 days): 2.1 g/L
dry algae density after growth period ([1]; Spirulina, 0.2 M taurine initially saturated with CO2, increase from 0.25 g/l in about 5 days after start-up): 1.7 g/L
CO2 leaving the beaker [2]: no CO2 was measured; also recorded: almost no CO2 is leaving the beaker
